These results are taken from ChEMBL document CHEMBL1142268, “Histone deacetylase inhibitors: from bench to clinic” (J Med Chem, 2008).

Where only a bound is given, the exact number is not on record here.

The target of test [1] is Histone deacetylase. The experiment in a line: Inhibition of HDAC from human HeLa cells. In kind it is cell-based.
For test [2], the target named is Histone deacetylase. Briefly: Inhibition of HDAC from human K562 cells. The format is cell-based.

One may read the IC50 as the point on the concentration scale where inhibition reaches its midpoint. Turning to `O=C(/C=C/c1ccc(S(=O)(=O)Nc2ccccc2)cc1)NO`, on Histone deacetylase [1] (read-out: IC50), the IC50 was 29 nM.
Still for that read-out and setting: under `COc1ccc(-c2nc3cc(-c4ccccc4)ccc3o2)cc1NC(=O)NCCCCCC(=O)NO` stands 400 nM; under `O=C(/C=C/c1cccc(NS(=O)(=O)c2ccccc2)c1)NO`, 188 nM; under `O=C(/C=C/c1cccc(S(=O)(=O)Nc2ccc(-c3ccccc3)cc2)c1)NO`, 54 nM.
Consider `O=C(NO)c1ccc(-c2ccncc2)s1`, for which, on Histone deacetylase [1], the 50% inhibitory concentration (IC50) came out at 1260 nM.
As to `COc1ccc(-c2nc3cc(F)ccc3o2)cc1NC(=O)NCCCCCC(=O)NO`, the IC50 at Histone deacetylase [1] (read-out: IC50) was 15 nM.
In the case of `NC(=O)C(=O)CCCCCCOc1ccc(-c2ccccc2)cc1`, the IC50 at Histone deacetylase [2] is above 50 µM.
For `CC(=O)SCCCCCCC(=O)Nc1ccccc1`, the IC50 on Histone deacetylase [1] (read-out: IC50) came to 7100 nM.
As for `O=C(O)CNC(=O)C(=O)CCCCCCOc1ccc(-c2ccccc2)cc1`, the IC50 against Histone deacetylase [2] was above 50 µM.
As for `O=C(CCCCCNC(=O)Nc1cccc(-c2nc3ccc(F)cc3o2)c1)NO`, the IC50 at Histone deacetylase [1] (read-out: IC50) turned out to be 9 nM.
As to `O=C(CCCCCCc1nc(-c2ccc(OC(F)(F)F)cc2)cs1)NO`, the IC50 at Histone deacetylase [2] stood at 0.074 µM.
Consider `O=C(CCCCCNC(=O)Nc1cccc(-c2nc3ccccc3o2)c1)NO`, for which the IC50 on Histone deacetylase [1] (read-out: IC50) was found to be 8 nM.
With `O=C(CCCCCCc1cnc(-c2ccccc2)o1)NO`, at Histone deacetylase [2], the IC50 turned out to be 0.013 µM.
For `CCNC(=O)C(=O)CCCCCCOc1ccc(-c2ccccc2)cc1`, on Histone deacetylase [2], the IC50 turned out to be 4.9 µM.
On to `O=C(/C=C/c1ccc(NS(=O)(=O)c2ccc(-c3ccccc3)cc2)cc1)NO`, for which the IC50 on Histone deacetylase [1] (read-out: IC50) worked out at 30 nM.
As to `COc1ccc(-c2nc3cc(Cl)ccc3o2)cc1NC(=O)NCCCCCC(=O)NO`, the IC50 on Histone deacetylase [1] (read-out: IC50) worked out at 146 nM.
Still for that read-out and setting: under `O=C(/C=C/c1cccc(S(=O)(=O)NCc2ccccc2)c1)NO` stands 34 nM.
Same read-out and setting: next, `O=C(/C=C/c1cccc(NS(=O)(=O)c2ccc(-c3ccccc3)cc2)c1)NO`: 106 nM.
`O=C(NO)c1ccc(-c2ccccn2)s1`: the IC50 at Histone deacetylase [1] was 243 nM.
Take `CN(c1ccccc1)S(=O)(=O)c1cccc(/C=C/C(=O)NO)c1`: the IC50 on Histone deacetylase [1] (read-out: IC50) worked out at 476 nM.
Same read-out and setting: next, `O=C(/C=C/c1ccc(S(=O)(=O)Nc2ccc(-c3ccccc3)cc2)cc1)NO`: 66 nM.
`CC(C)[C@H]1NC(=O)[C@@H](C)[C@@H](C/C=C\CCC(N)=O)NC(=O)[C@@H](Cc2ccccc2)NC(=O)[C@@H](C)NC1=O` [AZUMAMIDE A] gave an IC50 on Histone deacetylase [2] of 0.045 µM.
On the same count and under the same terms, under `O=C(O)C(=O)CCCCCCOc1ccc(-c2ccccc2)cc1` stands 3.7 µM.
Consider `COc1ccc(-c2nc3ccc(F)cc3o2)cc1NC(=O)NCCCCCC(=O)NO`, for which the IC50 on Histone deacetylase [1] (read-out: IC50) is on record as 18 nM.
Consider `O=C(NO)c1ccc(-c2cccnc2)s1`, for which, at Histone deacetylase [1], the IC50 worked out at 1130 nM.
For `COC(=O)C(=O)CCCCCCOc1ccc(-c2ccccc2)cc1`, the IC50 on Histone deacetylase [2] came out at 0.062 µM.
For `Cc1ccc(NS(=O)(=O)c2cccc(/C=C/C(=O)NO)c2)cc1`, at Histone deacetylase [1] (read-out: IC50), the IC50 came to 18 nM.
On the same count and under the same terms, next, `COc1ccc2oc(-c3cccc(NC(=O)NCCCCCC(=O)NO)c3)nc2c1`: 12 nM; `COc1ccc(-c2nc3cc(Cl)cc(Cl)c3o2)cc1NC(=O)NCCCCCC(=O)NO`: 128 nM; `COc1ccc(S(=O)(=O)Nc2cccc(/C=C/C(=O)NO)c2)cc1OC`: 137 nM.
On the same count and under the same terms, under `O=C(CCCCS)Nc1ccccc1` stands 6200 nM; under `O=C(CCCCCNC(=O)Nc1cccc(-c2nc3cc(C(F)(F)F)ccc3o2)c1)NO`, 19 nM; under `Cc1ccc(S(=O)(=O)Nc2cccc(/C=C/C(=O)NO)c2)cc1`, 123 nM.
Turning to `CSCCCCCCC(=O)Nc1ccccc1`, the IC50 against Histone deacetylase [1] was above 100000 nM.
For `O=C(CCCCCNC(=O)Nc1cccc(-c2nc3cc(F)ccc3o2)c1)NO`, the IC50 on Histone deacetylase [1] (read-out: IC50) came out at 8 nM.
Same read-out and setting: next, `COc1ccc(-c2nc3ccccc3o2)cc1NC(=O)NCCCCCC(=O)NO`: 12 nM; `COc1ccc(NS(=O)(=O)c2cccc(/C=C/C(=O)NO)c2)cc1OC`: 23 nM.
